Legend:
L1210 [1] = experiment: Cytotoxicity against mouse L1210 cells at 64 ug/disk by disk diffusion soft agar colony formation assay; assay type: functional
[2] = Cytotoxicity against human H116 cells at 64 ug/disk by disk diffusion soft agar colony formation assay; assay type: functional
MC-38 [3] = experiment: Cytotoxicity against mouse C38 cells at 64 ug/disk by disk diffusion soft agar colony formation assay; assay type: functional
[4] = Cytotoxicity against human H125 cells at 64 ug/disk by disk diffusion soft agar colony formation assay; assay type: functional
NCI-H322M = experiment: Antitumor activity against human NCI-H322M cells; assay type: functional, cell-based
BT-549 = experiment: Antitumor activity against human BT549 cells; assay type: functional, cell-based
SR = experiment: Antitumor activity against human SR cells; assay type: functional, cell-based
LOX IMVI = experiment: Antitumor activity against human LOXIMVI cells; assay type: functional, cell-based
MCF7 [5] = experiment: Antitumor activity against human MCF7 cells; assay type: functional, cell-based
SF-268 = experiment: Antitumor activity against human SF268 cells; assay type: functional, cell-based
Malme-3M = experiment: Antitumor activity against human MALME-3M cells; assay type: functional, cell-based
HL-60(TB) = experiment: Antitumor activity against human HL-60(TB) cells; assay type: functional, cell-based
SW-620 = experiment: Antitumor activity against human SW620 cells; assay type: functional, cell-based
TK-10 = experiment: Antitumor activity against human TK10 cells; assay type: functional, cell-based
[6] = Cytotoxicity against human H116 cells at 6.4 ug/disk by disk diffusion soft agar colony formation assay; assay type: functional
NCI-H460 = experiment: Antitumor activity against human NCI-H460 cells; assay type: functional, cell-based
RPMI-8226 = experiment: Antitumor activity against human RPMI8226 cells; assay type: functional, cell-based
OVCAR-3 = experiment: Antitumor activity against human OVCAR-3 cells; assay type: functional, cell-based
MOLT-4 = experiment: Antitumor activity against human MOLT4 cells; assay type: functional, cell-based
HCT-116 = experiment: Antitumor activity against human HCT116 cells; assay type: functional, cell-based
UO-31 = experiment: Antitumor activity against human UO31 cells; assay type: functional, cell-based
HCT-15 = experiment: Antitumor activity against human HCT15 cells; assay type: functional, cell-based
OVCAR-8 = experiment: Antitumor activity against human OVCAR8 cells; assay type: functional, cell-based
[7] = Cytotoxicity against mouse CFU-GM cells at 6.4 ug/disk by disk diffusion soft agar colony formation assay; assay type: cell-based
[8] = Antitumor activity against human 786-O cells; assay type: functional, cell-based; settings: 786-0
UACC-257 = experiment: Antitumor activity against human UACC257 cells; assay type: functional, cell-based
PC-3 = experiment: Antitumor activity against human PC3 cells; assay type: functional, cell-based
K562 = experiment: Antitumor activity against human K562 cells; assay type: functional, cell-based
KM12 = experiment: Antitumor activity against human KM12 cells; assay type: functional, cell-based
A549 = experiment: Antitumor activity against human A549/ATCC cells; assay type: functional, cell-based
HCC 2998 = experiment: Antitumor activity against human HCC2998 cells; assay type: functional, cell-based
HOP-92 = experiment: Antitumor activity against human HOP92 cells; assay type: functional, cell-based
SK-MEL-5 = experiment: Antitumor activity against human SK-MEL-5 cells; assay type: functional, cell-based
A498 = experiment: Antitumor activity against human A498 cells; assay type: functional, cell-based
SN12C = experiment: Antitumor activity against human SN12C cells; assay type: functional, cell-based
T47D = experiment: Antitumor activity against human T47D cells; assay type: functional, cell-based
RXF 393 = experiment: Antitumor activity against human RXF393 cells; assay type: functional, cell-based
COLO 205 = experiment: Antitumor activity against human COLO205 cells; assay type: functional, cell-based
SNB-75 = experiment: Antitumor activity against human SNB75 cells; assay type: functional, cell-based
OVCAR-4 = experiment: Antitumor activity against human OVCAR4 cells; assay type: functional, cell-based
SK-MEL-28 = experiment: Antitumor activity against human SK-MEL-28 cells; assay type: functional, cell-based
CCRF-CEM [9] = experiment: Cytotoxicity against human CEM cells at 6.4 ug/disk by disk diffusion soft agar colony formation assay; assay type: functional
NCI-H522 = experiment: Antitumor activity against human NCI-H522 cells; assay type: functional, cell-based
MCF7 [10] = experiment: Antitumor activity against […] human MCF7 cells; assay type: functional, cell-based
MC-38 [11] = experiment: Cytotoxicity against mouse C38 cells at 6.4 ug/disk by disk diffusion soft agar colony formation assay; assay type: functional
[12] = Antitumor activity against human Hs 578T cells; assay type: functional, cell-based
L1210 [13] = experiment: Cytotoxicity against mouse L1210 cells 6.4 ug/disk by disk diffusion soft agar colony formation assay; assay type: functional
NCI-H226 = experiment: Antitumor activity against human NCI-H226 cells; assay type: functional, cell-based
SNB-19 = experiment: Antitumor activity against human SNB19 cells; assay type: functional, cell-based
NCI-H23 = experiment: Antitumor activity against human NCI-H23 cells; assay type: functional, cell-based
HOP-62 = experiment: Antitumor activity against human HOP62 cells; assay type: functional, cell-based
[14] = Cytotoxicity against human H125 cells at 6.4 ug/disk by disk diffusion soft agar colony formation assay; assay type: functional
UACC-62 = experiment: Antitumor activity against human UACC62 cells; assay type: functional, cell-based
SK-OV-3 = experiment: Antitumor activity against human SKOV3 cells; assay type: functional, cell-based
IGROV-1 = experiment: Antitumor activity against human IGROV1 cells; assay type: functional, cell-based
U-251 = experiment: Antitumor activity against human U251 cells; assay type: functional, cell-based
OVCAR-5 = experiment: Antitumor activity against human OVCAR5 cells; assay type: functional, cell-based
CAKI-1 = experiment: Antitumor activity against human Caki1 cells; assay type: functional, cell-based
M14 = experiment: Antitumor activity against human M14 cells; assay type: functional, cell-based
MDA-MB-435 = experiment: Antitumor activity against human MDA-MB-435 cells; assay type: functional, cell-based
EKVX = experiment: Antitumor activity against human EKVX cells; assay type: functional, cell-based
ACHN = experiment: Antitumor activity against human ACHN cells; assay type: functional, cell-based
SF-295 = experiment: Antitumor activity against human SF295 cells; assay type: functional, cell-based
CCRF-CEM [15] = experiment: Cytotoxicity against human CEM cells at 0.8 ug/disk by disk diffusion soft agar colony formation assay; assay type: functional
CCRF-CEM [16] = experiment: Cytotoxicity against human CEM cells at 3.4 ug/disk by disk diffusion soft agar colony formation assay; assay type: functional
MC-38 [17] = experiment: Cytotoxicity against mouse C38 cells at 3.4 ug/disk by disk diffusion soft agar colony formation assay; assay type: functional
[18] = Cytotoxicity against human H116 cells at 3.4 ug/disk by disk diffusion soft agar colony formation assay; assay type: functional
[19] = Cytotoxicity against human H125 cells at 0.8 ug/disk by disk diffusion soft agar colony formation assay; assay type: functional
[20] = Cytotoxicity against mouse CFU-GM cells at 3.4 ug/disk by disk diffusion soft agar colony formation assay; assay type: cell-based
[21] = Cytotoxicity against human H125 cells at 3.4 ug/disk by disk diffusion soft agar colony formation assay; assay type: functional
[22] = Cytotoxicity against human H116 cells at 0.8 ug/disk by disk diffusion soft agar colony formation assay; assay type: functional
L1210 [23] = experiment: Cytotoxicity against mouse L1210 cells at 3.4 ug/disk by disk diffusion soft agar colony formation assay; assay type: functional
L1210 [24] = experiment: Cytotoxicity against mouse L1210 cells at 200 ug/dusk by disk diffusion soft agar colony formation assay; assay type: functional
[25] = Cytotoxicity against human H116 cells at 200 ug/disk by disk diffusion soft agar colony formation assay; assay type: functional
MC-38 [26] = experiment: Cytotoxicity against mouse C38 cells at 200 ug/disk by disk diffusion soft agar colony formation assay; assay type: functional
[27] = Cytotoxicity against mouse CFU-GM cells at 200 ug/disk by disk diffusion soft agar colony formation assay; assay type: cell-based
CCRF-CEM [28] = experiment: Cytotoxicity against human CEM cells at 84 ug/disk by disk diffusion soft agar colony formation assay; assay type: functional
MC-38 [29] = experiment: Cytotoxicity against mouse C38 cells at 84 ug/disk by disk diffusion soft agar colony formation assay; assay type: functional
[30] = Cytotoxicity against mouse CFU-GM cells at 84 ug/disk by disk diffusion soft agar colony formation assay; assay type: cell-based
[31] = Cytotoxicity against human H116 cells at 84 ug/disk by disk diffusion soft agar colony formation assay; assay type: functional
[32] = Cytotoxicity against human H125 cells at 84 ug/disk by disk diffusion soft agar colony formation assay; assay type: functional
L1210 [33] = experiment: Cytotoxicity against mouse L1210 cells at 84 ug/disk by disk diffusion soft agar colony formation assay; assay type: functional

For `O=C(O)c1ccc(Br)cc1-[n+]1ccc2c(c1)[nH]c1ccccc12.[Cl-]`, the Activity (L1210 [1]) was 100 Zone units, the Activity [2] was 0 Zone units and the Activity (MC-38 [3]) was 250 Zone units. It also gave an Activity [4] of 0 Zone units.

For `O=C1c2ccc(Br)cc2-[n+]2ccc3c([nH]c4ccccc43)c21.[Cl-]`, the IC50 (NCI-H322M) was 0.65 µM, the IC50 (BT-549) was 0.59 µM and the IC50 (SR) was > 10 µM. For the same compound, the IC50 (LOX IMVI) was > 10 µM, the IC50 (MCF7 [5]) was 0.93 µM and the IC50 (SF-268) was 5.6 µM. The IC50 (Malme-3M) was 0.49 µM, the IC50 (HL-60(TB)) was > 10 µM and the IC50 (SW-620) was > 10 µM. The IC50 (TK-10) was > 10 µM, the Activity [6] was 600 Zone units and the IC50 (NCI-H460) was > 10 µM. For the same compound, the IC50 (RPMI-8226) was > 10 µM, the IC50 (OVCAR-3) was 4.4 µM and the IC50 (MOLT-4) was > 10 µM. The IC50 (HCT-116) was 0.76 µM, the IC50 (UO-31) was 0.53 µM and the IC50 (HCT-15) was > 10 µM. It also gave an IC50 (OVCAR-8) of 0.6 µM, an Activity [7] of 400 Zone units and an IC50 [8] of 7.1 µM. For the same compound, the IC50 (UACC-257) was 5.3 µM, the IC50 (PC-3) was > 10 µM and the IC50 (K562) was > 10 µM. For the same compound, the IC50 (KM12) was 8.5 µM, the IC50 (A549) was > 10 µM and the IC50 (HCC 2998) was 0.91 µM. For the same compound, the IC50 (HOP-92) was > 10 µM, the IC50 (SK-MEL-5) was > 10 µM and the IC50 (A498) was > 10 µM. For the same compound, the IC50 (SN12C) was 2.9 µM, the IC50 (T47D) was > 10 µM and the IC50 (RXF 393) was 3.1 µM. The IC50 (COLO 205) was > 10 µM, the IC50 (SNB-75) was 3.8 µM and the IC50 (OVCAR-4) was 0.59 µM. For the same compound, the IC50 (SK-MEL-28) was 1.3 µM, the Activity (CCRF-CEM [9]) was 400 Zone units and the IC50 (NCI-H522) was 0.68 µM. The IC50 (MCF7 [10]) was 5.3 µM, the Activity (MC-38 [11]) was 400 Zone units and the IC50 [12] was 0.59 µM. The Activity (L1210 [13]) was 500 Zone units, the IC50 (NCI-H226) was 5.3 µM and the IC50 (SNB-19) was 0.66 µM. For the same compound, the IC50 (NCI-H23) was 0.89 µM, the IC50 (HOP-62) was > 10 µM and the Activity [14] was 550 Zone units. For the same compound, the IC50 (UACC-62) was 0.63 µM, the IC50 (SK-OV-3) was > 10 µM and the IC50 (IGROV-1) was 0.74 µM. For the same compound, the IC50 (U-251) was > 10 µM, the IC50 (OVCAR-5) was > 10 µM and the IC50 (CAKI-1) was 1.6 µM. The IC50 (M14) was 0.59 µM, the IC50 (MDA-MB-435) was > 10 µM and the IC50 (EKVX) was 3.6 µM. For the same compound, the IC50 (ACHN) was > 10 µM and the IC50 (SF-295) was 0.59 µM.

In the case of `O=C1c2ccccc2-[n+]2ccc3c([nH]c4cc(Br)ccc43)c21.[Cl-]`, the Activity (CCRF-CEM [15]) is reported as 200 Zone units, the Activity (CCRF-CEM [16]) is reported as 400 Zone units and the Activity (MC-38 [17]) is reported as 450 Zone units. For the same compound, the Activity [18] was 600 Zone units, the Activity [19] was 500 Zone units and the Activity [20] was 350 Zone units. The Activity [21] was 750 Zone units, the Activity [22] was 400 Zone units and the Activity (L1210 [23]) was 550 Zone units.

With `COC(=O)c1ccc(Br)cc1-[n+]1ccc2c(c1)[nH]c1ccccc12.[Cl-]` the Activity (L1210 [24]) was 350 Zone units, the Activity [25] was 200 Zone units and the Activity (MC-38 [26]) was 400 Zone units. For the same compound, the Activity [27] was 250 Zone units.

Work on `Oc1ccc(Br)cc1-[n+]1ccc2c(c1)[nH]c1ccccc12.[Cl-]` yielded an Activity (CCRF-CEM [28]) of 750 Zone units, an Activity (MC-38 [29]) of 400 Zone units and an Activity [30] of 450 Zone units. For the same compound, the Activity [31] was 500 Zone units, the Activity [32] was 550 Zone units and the Activity (L1210 [33]) was 450 Zone units.
